Data published in ChEMBL document CHEMBL5729088, “Thienodiazepine derivatives and application thereof” (2022).

Assays:
[1] = biological target: T1, Bromodomain-containing protein 4 (Homo sapiens, UniProt O60885); assay: (§1) BRD4 Biochemical Activity Test: The experiment plate was a plate that contained a gradient concentration of the compound and a corresponding DMSO solution and was prepared with ECHO before the experiment:a) The experiment plate was taken out, and 5 μL/well of “solution A” (protein solution) was added to columns 2-23 of the experiment plate, then 5 μL/well of 1× assay buffer was added to columns 1 and 24 of the experiment plate, and columns 1 and 24 were used as Min control in the experiment system;b) Centrifugation at 1000 rpm was carried out for 30 seconds;c) The plate was incubated at 23° C. for 20 minutes;d) After 20 minutes of incubation, 5 μL/well of “solution B” (polypeptide solution) was added to columns 1-24 of the experiment plate;e) Centrifugation at 1000 rpm was carried out for 30 seconds;f) The plate was incubated at 23° C. for 20 minutes;g) After 20 minutes of incubation, 5 μL/well of “solution C” (test reagent solution) was added to columns 1-24 of the experiment plate;h) Centrifugation at 1000 rpm was carried out for 30 seconds;i) The plate was incubated at 23° C. for 40 minutes;j) The experiment plate was placed on EnVision to read the plate.
[2] = biological target: T1, Bromodomain-containing protein 4; assay: as §1; remark: listed apart in the source

SMILES: Cc1sc2c(c1C)C(c1ccc(Cl)cc1)=N[C@@H](CC(=O)Nc1ccc(O)c3c1COC3)c1nnc(C)n1-2
- IC50 [1]: 0.1 µM
- IC50 [2]: 0.021 µM

SMILES: Cc1sc2c(c1C)C(c1ccc(Cl)cc1)=N[C@@H](CC(=O)Nc1ccc3c(c1)CS(=O)(=O)C3)c1nnc(C)n1-2
- IC50 [1]: 0.049 µM
- IC50 [2]: 0.014 µM
